Test results reported in US9700552B2, “Pharmaceutical compositions for treatment of addiction” (priority 2008, dated 2017).
Like-named read-outs stand apart in the source and are kept apart here.

How the values were obtained:
[1] = in vivo; cited from earlier work
[2] = Solubility of naltrexone in adhesive matrix; assay type: physicochemical
From the text: […]. Adhesive matrices having such Hildebrand solubility parameters are typically, although not necessarily polyacrylate copolymers. […].

[3] = in vivo, cited from earlier work

Row | Structure (SMILES) | mean elimination half-life [1] | solubility of naltrexone in adhesive ([2]; in DURO-TAK® 87-900A) | solubility of naltrexone in adhesive ([2]; in DURO-TAK® 87-2510) | safety statement [3] | safety statement ([3]; listed as Naltrexone)
1 | Oc1ccc2c3c1O[C@H]1[C@H](O)CC[C@@]4(O)[C@@H](C2)N(CC2CC2)CC[C@]314 [6-β-naltrexol] | thirteen | – | – | – | –
2 | O=C1CC[C@@]2(O)[C@H]3Cc4ccc(O)c5c4[C@@]2(CCN3CC2CC2)[C@H]1O5 [naltrexone] | – | 5.851 g/100 g of polymer | 3.067 g/100 g of polymer | major liver toxin | very few and minor side effects
